Results as given in US10064845B2, “Compositions and methods of treating muscular dystrophy with thromboxane-A2 receptor antagonists” (Cumberland Pharmaceuticals, Inc., priority 2016, dated 2018).

Columns and labels:
[1] = test system: pressure-overload model of pulmonary arterial hypertension; details: cited from earlier work
[2] = test system: utrophin/dystrophin double knockout (DKO) mice, a model of severe DMD; assay: survival of utrophin/dystrophin DKO mice; format: in vivo, mouse
Source text: (§1) Applicants explored the possibility that TPr activity may contribute to pathology in muscular dystrophy. In preliminary studies, the effects of blocking TPr activity in a δ-sarcoglycan knockout (dSG KO) mouse model of limb-girdle muscular dystrophy (LGMD). […] The inhibition of LV epicardial fibrosis may have particular applicability to DMD patients, where cardiac fibrosis typically begins in the sub-epicardium of the left ventricular (LV) free wall and progresses to include the remaining LV free wall and septum. […] Therefore, it is believed that TPr activity contributes to pathology in muscular dystrophy.
dSG KO mice, chosen for their cardiac phenotype, are a model of LGMD, but DMD which occurs in approximately 1:3500 male births (1), is far more common a disease than LGMD. The mdx mouse model of DMD poorly replicates the shortened life expectancy, cardiac fibrosis, and cardiomyopathy seen in DMD patients. The utrophin/dystrophin DKO model had significant mortality by 10 weeks, although treatment with the TPr antagonist ifetroban led to 100% survival to this predetermined timepoint. Although TPr antagonism may prevent spontaneous death in DMD, due to severe kyphosis and frailty we were not able to obtain much useful cardiac data with the DKO model of DMD.
(§2) While the DSG KO (sgcd−/−) mice lack functional delta-sarcoglycan, the MD phenotype is milder than the human disease. […]

dSG KO mice [3] = assay: wire hang in dSG mice; format: in vivo, mouse
Source text: (§3) Example 4 utilized West/Carrier Muscular Dystrophy Animal Models (Delta-sarcoglycan knock-out mice (sgcd−/−)). Mice devoid of DSG develop cardiomyopathy and MD with signs of progressive disease such as necrosis, muscular regeneration, inflammation and fibrosis within the first 3 months of life. Mice that are homozygous for the targeted mutation are viable, fertile and normal in size. No gene product (protein) is immunodetected in skeletal muscle microsomal preparations. At 8 weeks of age there is an onset of sudden mortality, with a 50% survival rate at 28 weeks. Elevated creatine kinase serum levels are indicative of striated muscle degeneration. […] At 12 weeks of age, cardiac muscle tissue also begins to show degeneration, inflammatory infiltration and perivascular fibrosis. Myofiber membranes have permeability defects as assessed by Evans blue dye uptake into myofiber cytoplasm. […] A major function of dystrophin is to strengthen the sarcolemma by cross-linking the ECM with the cytoskeleton. […] They work to connect sarcolemma to cytoplasmic actin cytoskeleton. Dysfunction produces membrane instability, elevated [Ca2+]I and disrupted NO signaling. γ- and δ-SG form a core necessary for delivery/retention of other SG to the membrane.
Veh and ife-treated groups were NS tested against each other. N in parentheses. “ife”=ifetroban.
FIG. 8 depicts wire hang time for mice tested.

[4] = test system: utrophin/dystrophin double knockout (DKO) mice; assay: wire hang in DKO males; format: in vivo, mouse; details: DKO males at 10 weeks; vs vehicle; FIG. 15
Source text: While the DSG KO (sgcd−/−) mice lack functional delta-sarcoglycan, the MD phenotype is milder than the human disease. Since utrophin, a dystrophin-related protein, is able to compensate for the loss of dystrophin, loss of utrophin and dystrophin (DKO) results in a more severe phenotype. […] The mice are difficult to generate and care for, and often die prematurely. Ifetroban treatment was started at 3 weeks upon weaning.
FIG. 1 are photos of a vehicle-treated compared with an ifetroban-treated DKO mouse. FIG. 1A is a photograph of a vehicle-treated DKO Mouse at 10 weeks. FIG. 1B is a photograph of an ifetroban-treated DKO mouse at 10 weeks. The ability to wrap the tail around the wire is dependent on muscle function. A reason the DKO mice are really hard to evaluate in the wire hang is that they have such severe scoliosis that their hind paws are very close to their front paws, so raising their hind paws to get a 4-limbed grip is not difficult despite their affliction.
FIG. 15 are graphs showing wire hang in DKO males at 10 weeks (ifetroban-treated (“ife”) versus vehicle).

[5] = test system: δ-sarcoglycan knockout (dSG KO) mouse model of limb-girdle muscular dystrophy; assay: cardiac function (Echo, cardiac output) in dSG KO mice; format: in vivo
Source text: as §1, §3, §2

dSG KO mice [6] = assay: survival of dSG KO mice; format: in vivo, mouse
Source text: Applicants explored the possibility that TPr activity may contribute to pathology in muscular dystrophy. In preliminary studies, the effects of blocking TPr activity in a δ-sarcoglycan knockout (dSG KO) mouse model of limb-girdle muscular dystrophy (LGMD). […] The inhibition of LV epicardial fibrosis may have particular applicability to DMD patients, where cardiac fibrosis typically begins in the sub-epicardium of the left ventricular (LV) free wall and progresses to include the remaining LV free wall and septum. […] Therefore, it is believed that TPr activity contributes to pathology in muscular dystrophy. Example 4 utilized West/Carrier Muscular Dystrophy Animal Models (Delta-sarcoglycan knock-out mice (sgcd−/−)). Mice devoid of DSG develop cardiomyopathy and MD with signs of progressive disease such as necrosis, muscular regeneration, inflammation and fibrosis within the first 3 months of life. Mice that are homozygous for the targeted mutation are viable, fertile and normal in size. No gene product (protein) is immunodetected in skeletal muscle microsomal preparations. At 8 weeks of age there is an onset of sudden mortality, with a 50% survival rate at 28 weeks. Elevated creatine kinase serum levels are indicative of striated muscle degeneration. […] Myofiber membranes have permeability defects as assessed by Evans blue dye uptake into myofiber cytoplasm. […]

dSG KO mice [7] = assay: spontaneous exercise (voluntary wheel running) in dSG KO mice; format: in vivo, mouse; details: 6 month old dSG KO males; wheel access for 10 days after 4.5M of treatment; FIG. 5
Source text: as §3
FIG. 5 provides spontaneous exercise date for 6 month old males. […]

[8] = test system: δ-sarcoglycan knockout (dSG KO) mouse model of limb-girdle muscular dystrophy; assay: cardiac histology (Masson's trichrome) in dSG KO mice; format: in vivo
Source text: as §1, §3
FIGS. 9A (dSGKO-vehicle) and 9B (DsGKO-ifetroban) show cardiac histology in dSG KO males. Less fibrosis seen in ifetroban treated RV. Shown is Masson's trichrome at 4× for gross histology. […]

[9] = test system: δ-sarcoglycan knockout (dSG KO) mouse model of limb-girdle muscular dystrophy; assay: plasma cardiac troponin I in dSG KO mice; format: in vivo; details: given in drinking water
Source text: as §1
Example 4 utilized West/Carrier Muscular Dystrophy Animal Models (Delta-sarcoglycan knock-out mice (sgcd−/−)). Mice devoid of DSG develop cardiomyopathy and MD with signs of progressive disease such as necrosis, muscular regeneration, inflammation and fibrosis within the first 3 months of life. Mice that are homozygous for the targeted mutation are viable, fertile and normal in size. No gene product (protein) is immunodetected in skeletal muscle microsomal preparations. […] Myofiber membranes have permeability defects as assessed by Evans blue dye uptake into myofiber cytoplasm. […]
The term “cTNI” means plasma cardiac troponin I. The term “KO” means knockout. […] Plasma cardiac troponin I (cTNI) is highly specific and sensitive for myocardial tissue and can be measured rapidly. […]

dSG KO mice [10] = assay: intestinal histology (H&E) in dSG KO mice; format: in vivo, mouse; details: dSG KO mice vs vehicle-treated dSG KO mice; FIG. 13
Source text: as §3, with “membrane. […]” for “membrane.”

[11] = dSG KO mice, given in drinking water, preliminary studies

SMILES | cardiac function [1] | right ventricular fibrosis [1] | 10-week survival ([2]; DKO mice, treatment started at 3 weeks upon weaning) | survival time ([2]; all DKO mice, FIG. 17) | wire hang time (dSG KO mice [3]; dSG mice at 6 months, FIG. 6) | wire hang time (longest time) (dSG KO mice [3]; male mice at 6 months, FIG. 8) | average wire hang time [4] | 3 month Echo data: cardiac dysfunction ([5]; dSG KO males at 3 months, FIG. 3) | decline in cardiac function [5, 11] | cardiac output ([5]; male dSG KO mice at 3 months, FIG. 4, compared to vehicle) | survival (dSG KO mice [6]) | spontaneous exercise (voluntary wheel running): skeletal function deficit (dSG KO mice [7]) | cardiac histology: fibrosis in RV ([8]; dSG KO males, Masson's trichrome 4× (FIG. 9) or 2× (FIG. 10)) | cardiac histology: fibrosis in left and right ventricle ([8]; dSG KO males, Masson's trichrome, 10×, FIG. 11) | formation of cardiac fibrosis [8, 11] | plasma cardiac troponin I levels [9] | fibrosis in intestinal tissue (dSG KO mice [10])
CC(=O)Oc1ccccc1C(=O)O [aspirin] | no effect | no effect |  |  |  |  |  |  |  |  |  |  |  |  |  |  | 
CCCCCNC(=O)c1coc([C@H]2[C@@H](Cc3ccccc3CCC(=O)O)[C@@H]3CC[C@H]2O3)n1 [ifetroban, [1S-(1α,2α,3α,4α)]-2-[[3-[4-[(Pentylamino)carbonyl]-2-oxazolyl]-7-oxabicyclo[2.2.1]hept-2-yl]methyl]-benzenepropanoic acid] | improves cardiac function | dramatically decreases right ventricular fibrosis | 100% | > 70 days | improved wire hang time | difficult to measure any difference | significantly longer average hang times | prevents cardiac dysfunction | prevents a decline in cardiac function | improved similar to WT levels | significantly improved survival | seen to a less extent | less fibrosis | Less fibrosis | limits the formation of cardiac fibrosis | normalizing elevated plasma cardiac troponin I levels | less fibrosis
O=C(O)/C=C/c1ccc(Cn2ccnc2)cc1 [ozagrel] | no effect | no effect |  |  |  |  |  |  |  |  |  |  |  |  |  |  | 
